This note sets out measurements from PubChem BioAssay (NCI).

Holding throughout (assay): inhibition of tumour cell growth, NCI panel, 48 h
Assay [1] concerns SF-539 CNS.
Assay [2] concerns UO-31 renal.
Assay [3] concerns NCI-H460 lung.
In assay [4] the test system is KM12 colon.
In assay [5] the test system is OVCAR-8 ovarian.
For assay [6], the system named is 786-0 renal.
Assay [7] concerns M14 melanoma.
Assay [8] concerns HT29 colon.
The subject of assay [9] is NCI-H23 lung.
The test system of assay [10] is CAKI-1 renal.

Values joined by “and” are separate entries in the source; they are usually repeats but may differ in a detail not shown here. Identical values can stand only once.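 Results reflect a 48-hour exposure of cells in 96-well plates to compound at five concentrations. GI50 marks 50% less growth. At the TGI there is no net growth.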

As to `Clc1ccc(Nc2ncnc3c2sc2ncccc23)c(Cl)c1`, the GI50 in [1] was 0.0225 µM; in assay [2], < 0.01 µM; in assay [3], < 0.01 µM; in assay [4], 3.39 µM; in assay [5] it was < 0.0135 µM; in assay [6] it was < 0.01 µM. For the same compound, the GI50 in assay [7] was < 0.01 µM; in assay [8], 0.0462 µM; in [9] it was < 0.01 µM; in assay [10], < 0.0107 µM. Moreover, the TGI in assay [1] was 7.37 µM; in assay [2], 4.32 µM; in [3], > 100 µM; in assay [4] it was > 100 µM; in [5], > 100 µM; in [6], > 100 µM. Besides, the TGI was 0.038 µM in assay [7], > 100 µM in assay [8], 1.47 µM in [9] and > 33.9 µM in assay [10].

With `O=C1Nc2c(ccc(Cl)c2Cl)/C1=C\c1cc(C(F)(F)F)cc(C(F)(F)F)c1`, the GI50 in [1] was 6.95 µM; in [2], 0.485 µM; in assay [3], 2.45 µM; in assay [4], 1.42 µM; in assay [5] it was 5.75 µM; in assay [6], 4.29 µM. For the same compound, the GI50 in assay [7] was 5.06 µM; in assay [8] it was 1.95 µM; in assay [9], 4.95 µM; in [10] it was 0.399 µM. In addition, the TGI was 13.8 µM in [1]; 8.74 µM in [2]; 7.68 µM in assay [3]; 5.53 µM in assay [4]; 16 µM in assay [5]; 10.4 µM in [6]. In addition, the TGI in assay [7] turned out to be 11.3 µM; in assay [8] it was 6.68 µM; in assay [9] it was 21.6 µM; in assay [10], 7.85 µM.

For the compound `CCCCC1N=CNc2c1ccc1c2[nH]c2ccccc21` (stereo not given), the TGI was determined as 7.91 µM in assay [1]; 21.9 µM in assay [2]; 4.22 µM in assay [3]; 41.8 µM in [4]; 3.34 µM in assay [6]; 6.74 µM in [7]. Besides, the TGI in [8] was determined as 3.95 µM; in assay [9] it was 11 µM; in assay [10], 9.16 µM.

For the compound `CN(CCCCN)c1ccc2c(=O)[nH][nH]c(=O)c2c1`, the TGI in assay [1], in assay [2], in [3], in assay [4], in assay [6] and in assay [7] was > 100 µM in each case. Besides, the values for the TGI in assay [8], in assay [9] and in assay [10] were > 100 µM, 5.1 µM and > 100 µM, respectively.

Take `ClCc1ccc(-c2ccc(Cn3cnc4c(Cl)ncnc43)cc2)cc1`: the GI50 in assay [1] was 1.52 µM; in assay [2] it was 2.29 µM; in assay [3] it was 0.486 µM; in [4], 1.59 µM; in assay [5], 2.8 µM; in [6], 1.62 µM. Further, the GI50 is 2.69 µM in assay [7], 1.84 µM in [9] and 1.47 µM in assay [10]. Also, the TGI was 3.14 µM in [1]; 5.21 µM in assay [2]; 2.65 µM in assay [3]; 3.56 µM in [4]; 8.95 µM in assay [5]; 2.97 µM in assay [6]. The TGI was determined as 11.8 µM in assay [7], 3.65 µM in assay [9] and 2.87 µM in assay [10].

Turning to `COc1ccc(NC(=O)C2=CC(=O)c3ccc(O)cc3C2=O)c(OC)c1`, the TGI in [1], in assay [3], in assay [4], in assay [5], in assay [6] and in assay [7] was > 100 µM each time. Further, the TGI in [8], in assay [9] and in assay [10] was > 100 µM each time.

With `O=C1NC(Cc2ccccc2)C(=O)N2CCCC12` (stereo not given), the TGI in assay [1], in assay [2], in assay [3], in assay [4], in [5] and in assay [6] was > 100 µM each time. Also, the TGI in assay [7], in [8] and in assay [10] was > 100 µM throughout.

Take `COC1C(C)OC(OC2CC(C)(O)Cc3cc4c(c(O)c32)C(=O)c2c(O)cc3c(c2C4=O)OC2OC3(C)C(O)C(N(C)C)C2O)C(OC)C1(C)OC` (stereo not given): the GI50 in [1] was 0.038 µM and 0.0171 µM; in assay [3] it was 0.0303 µM and 0.0155 µM; in [4], 0.0639 µM and 0.0289 µM; in assay [5], 0.0416 µM and 0.0176 µM; in assay [7], 0.141 µM; in assay [8], 0.00453 µM and 0.0379 µM. Besides, the GI50 in assay [9] was 0.0395 µM and 0.0216 µM; in assay [10], 0.0476 µM and 0.0219 µM. The TGI in assay [3] is 1.86 µM and 0.233 µM; in assay [5] it was 2.79 µM and 1.37 µM; in [6], 2.46 µM; in [10], 0.422 µM and 0.452 µM.

As to `O=C(O)C1C2CCC(O2)C1C(=O)NCc1cccnc1` (stereo not given), the TGI in assay [1], in assay [2], in assay [3], in assay [4], in assay [6] and in [7] was > 100 µM each time. Further, the TGI in assay [8], in assay [9] and in assay [10] was > 100 µM in each case.
